SMILES strings stand for the structures. The source made the active and inactive calls. No cut-off for these calls is given here.

Common to all, as to type: functional
Assay [1] is described as follows: Antioxidant activity assessed as inhibition of rate of formation of phosphatidylcholine hydroperoxides at 2.2 uM by phosphatidylcholine oxidation assay.
The nature of assay [2]: Antioxidant activity in methanolic solution at 83 uM at 37 degC.
Assay [3] is described as follows: Antioxidant activity assessed as inhibition of rate of formation of phosphatidylcholine hydroperoxides at 1.9 uM by phosphatidylcholine oxidation assay.

Turning to `Cc1c(C)c2c(c(C)c1O)CC[C@@](C)(CCC[C@H](C)CCC[C@H](C)CCCC(C)C)O2`, the result in assay [1] and in assay [2] was Active.
`C=C(C)CCC[C@@H](C)CCC[C@@H](C)CCC[C@]1(C)CCc2c(C)c(O)c(C)c(C)c2O1`: the outcome in assay [2] and in assay [3] was Active.

Values taken from ChEMBL document CHEMBL1142553, “A new vitamin E (alpha-tocomonoenol) from eggs of the Pacific salmon Oncorhynchus keta” (J Nat Prod, 1999).
